Assay results: patent US8563723B2, “Arylsulfonyl pyrazoline carboxamidine derivatives as 5-HT6 antagonists” (Abbott Healthcare Products, B.V., priority 2008, dated 2013)
pKi: −log10 of the molar value. Read-outs that look alike come from different tables or passages of the source.

Assays:
5-HT6 receptor [1] = target: T1, 5-HT6 receptor (Homo sapiens, UniProt P50406); assay: In vitro functional activity ((ant)agonism) on human 5-HT6 receptors, CHO-human-5HT6-Aequorin assay; type: cell-based; design: host or cells: CHO AequoScreen recombinant cell line (expresses mitochondrial targeted apo-Aequorin)
Method: Human-5-HT6-Aequorin cells express mitochondrial targeted apo-Aequorin. Cells have to be loaded with coelanterazine, in order to reconstitute active Aequorin. […] This luminescent response is dependent on the agonist concentration. Luminescence is measured using the MicroBeta Jet (Perkin Elmer). Agonistic effects of compounds are expressed as pEC50. […] Compounds were tested at a 5 log concentration range, and 3 independent experiments were performed in duplicate.

5-HT6 receptor [2] = target: T1, 5-HT6 receptor; assay: In vitro affinity for human 5-HT6 receptors ([3H]-LSD binding, CHO cell membranes); design: host or cells: CHO/Gα16/mtAEQ/h5HT6-A1 cells; conditions: read-out: 5-HT6 pKi (converted)
Method: In Vitro Affinity for Human 5-HT6 Receptors
Affinity for human 5-HT6 receptors was measured in a membrane preparation of CHO-cells transfected with human 5-HT6 receptors by binding studies using [^3H]-N-Methyl-Lysergic acid diethylamide ([^3H]-LSD) as ligand. […] CHO/Gα16/mtAEQ/h5HT6-A1 cells were grown in T-flasks in CHO-S-SFM II medium (Gibco BRL), supplemented with 1% dialysed FCS, 2 mM L-glutamine, Geneticin 500 μg/ml and Zeocin 200 μg/ml. […] After thawing cells were centrifuged during 3 minutes at 1500 g at 4° C. […] The assay was established so as to achieve steady state conditions and to optimize specific binding. For the 5-HT6 receptor, membranes from 5.10^5 cells were incubated with 5.0 nM [^3H]-LSD at 37° C. for 30 minutes. Nonspecific binding was determined using 10^−5 M serotonin. Assays were terminated by vacuum filtration through glass fibre filters (GF/B) which had been pretreated with 0.5% polyethyleneimine. Total and bound radioactivity was determined by liquid scintillation counting. […] Compounds were tested at a 4 log concentration range; all determinations were performed as triplicates. IC50 values were determined by non-linear regression analysis using Hill equation curve fitting. The inhibition constants (Ki-values) were calculated from the Cheng-Preushoff equation: Ki=IC50:(1+L/Kd) wherein L represents the concentration [^3H]-LSD in the assay, and Kd its affinity for the receptor. Results are expressed as pKi-values, means±SD of at least three separate experiments.

in vitro [3] = conditions: human, hepatocytes
in vitro [4] = conditions: rat, hepatocytes
[5] = Sleight, 1998; cited from earlier work
5-HT6 receptor [6] = target: T1, 5-HT6 receptor; conditions: 5-HT6 receptor (Sleight, 1998); cited from earlier work
[7] = antagonism of 10^-8 M α-methylserotonin induced luminescence, main compound table, read-out: 5-HT6 pA2 (converted)
[8] = [3H]-LSD, membranes of CHO cells with human 5-HT6, main compound table
[9] = antagonism of 10^-8 M α-methylserotonin induced luminescence, main compound table
[10] = [3H]-LSD, membranes of CHO cells with human 5-HT6, comparison table Example 6
[11] = antagonism of 10^-8 M α-methylserotonin induced luminescence, comparison table Example 6

T1 sequence (P50406 whole entry): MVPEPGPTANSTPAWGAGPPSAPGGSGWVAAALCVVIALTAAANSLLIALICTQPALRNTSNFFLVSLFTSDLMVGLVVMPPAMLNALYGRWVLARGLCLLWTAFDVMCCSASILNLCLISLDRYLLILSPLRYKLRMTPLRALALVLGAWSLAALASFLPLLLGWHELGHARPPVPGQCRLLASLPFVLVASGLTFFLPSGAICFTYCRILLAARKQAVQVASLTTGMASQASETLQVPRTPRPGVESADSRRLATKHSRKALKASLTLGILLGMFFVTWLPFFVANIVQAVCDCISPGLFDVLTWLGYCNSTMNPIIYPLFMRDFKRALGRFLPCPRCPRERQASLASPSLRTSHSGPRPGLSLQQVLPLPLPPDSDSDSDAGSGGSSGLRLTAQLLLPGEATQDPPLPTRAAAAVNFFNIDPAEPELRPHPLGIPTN

Structure (SMILES) | Kb (5-HT6 receptor [1]; [7]) | Ki (5-HT6 receptor [2]; [8]) | further results
CCN/C(=N\S(=O)(=O)c1ccc(N)cc1)N1CC(CC)C=N1 (single isomer, unassigned) [Compound 1] | 2 nM | 3.16 nM | –
CCN/C(=N\S(=O)(=O)c1ccc(N)cc1)N1CC(CC)C=N1 (single isomer, unassigned) [Compound 2] | – | 10 nM | –
CCN/C(=N\S(=O)(=O)c1ccc(N)c(Cl)c1)N1CC(CC)C=N1 (single isomer, unassigned) [Compound 11] | 0.501 nM | 1 nM | –
CCN/C(=N\S(=O)(=O)c1ccc(N)c(Cl)c1)N1CC(CC)C=N1 (single isomer, unassigned) [Compound 12] | 1 nM | 1.58 nM | –
CCN/C(=N\S(=O)(=O)c1ccc(O)cc1)N1CC(CC)C=N1 (single isomer, unassigned) [Compound 20] | 1 nM | 2 nM | –
CCN/C(=N\S(=O)(=O)c1ccc(O)cc1)N1CC(CC)C=N1 (single isomer, unassigned) [Compound 21] | 6.31 nM | 10 nM | –
CCN/C(=N\S(=O)(=O)c1ccc(N)cc1)N1CC(C)(C)C=N1 [Compound 3, 4-Amino-N-[(4,4-dimethyl-4,5-dihydro-pyrazol-1-yl)-ethylamino-methylene]-benzenesulfonamide] | – | 12.6 nM | half-life at 1 μg/ml (in vitro [3]): > 1000 min; 5-HT6 pA2 (5-HT6 receptor [1]; [9]): 7.6; Ki (5-HT6 receptor [2]; [10]): 12.6 nM; half-life at 1 μg/ml (in vitro [4]): 71 min
CCN/C(=N\S(=O)(=O)c1ccc(N)cc1)N1CC2(C=N1)CCCC2 [Compound 4, 4-Amino-N-[(2,3-diaza-spiro[4.4]non-3-en-2-yl)-ethylamino-methylene]benzene-sulfonamide] | – | 10 nM | Kb (5-HT6 receptor [1]; 5-HT6 pA2, antagonism of 10^-8 M α-methylserotonin induced luminescence, main compound table): 5.01 nM; melting point: 141 to 142 °C
N/C(=N\S(=O)(=O)c1ccc(N)cc1)N1CC2(C=N1)CCCC2 [Compound 5] | 79.4 nM | 100 nM | –
CCN/C(=N\S(=O)(=O)c1ccc(N)cc1)N1CC2(C=N1)CCOCC2 [Compound 7] | 25.1 nM | 63.1 nM | –
CN/C(=N\S(=O)(=O)c1ccc(N)cc1)N1CC2(C=N1)CCOCC2 [Compound 8] | 158 nM | 200 nM | –
N/C(=N\S(=O)(=O)c1ccc(N)cc1)N1CC2(C=N1)CCOCC2 [Compound 9] | 200 nM | 251 nM | –
CCN/C(=N\S(=O)(=O)c1ccc(N)c(Cl)c1)N1CC(C)(C)C=N1 [Compound 13, 4-Amino-3-chloro-N-[(4,4-dimethyl-4,5-dihydro-pyrazol-1-yl)-ethylamino-methylene]-benzenesulfonamide] | 3.16 nM | 6.31 nM | half-life at 1 μg/ml (in vitro [3]): 700 min; Ki (5-HT6 receptor [2]; [10]): 6.31 nM; half-life at 1 μg/ml (in vitro [4]): 22 min
CCN/C(=N\S(=O)(=O)c1ccc(N)c(Cl)c1)N1CC2(C=N1)CCCC2 [Compound 14] | – | 1.58 nM | half-life at 1 μg/ml (in vitro [3]): 51 min; 5-HT6 pA2 (5-HT6 receptor [1]; [9]): 9.0; Ki (5-HT6 receptor [2]; [10]): 1.58 nM; half-life at 1 μg/ml (in vitro [4]): 17 min
CCN/C(=N\S(=O)(=O)c1ccc2c(c1)CCN2)N1CC(CC)C=N1 (stereo not shown) [Compound 16, 2,3-Dihydro-1H-indole-5-sulfonic acid ethylamino-(4-ethyl-4,5-dihydro-pyrazol-1-yl)-methyleneamide] | 10 nM | 12.6 nM | –
CCN/C(=N\S(=O)(=O)c1ccc2[nH]ccc2c1)N1CC(CC)C=N1 (stereo not shown) [Compound 18, 1H-Indole-5-sulfonic acid ethylamino-(4-ethyl-4,5-dihydro-pyrazol-1-yl)-methyleneamide] | – | 3.98 nM | –
CCN/C(=N\S(=O)(=O)c1ccc(O)cc1)N1CC(CC)C=N1 (stereo not shown) [Compound 19, N-[Ethylamino-(4-ethyl-4,5-dihydro-pyrazol-1-yl)-methylene]-4-hydroxybenzenesulfonamide] | 2.51 nM | 3.16 nM | half-life at 1 μg/ml (in vitro [3]): 354 min; Ki (5-HT6 receptor [2]; [10]): 3.16 nM; half-life at 1 μg/ml (in vitro [4]): 19 min
CCN/C(=N\S(=O)(=O)c1ccc(O)cc1)N1CC(C)(C)C=N1 [Compound 22] | 5.01 nM | 12.6 nM | half-life at 1 μg/ml (in vitro [3]): 1440 min; Ki (5-HT6 receptor [2]; [10]): 12.6 nM; half-life at 1 μg/ml (in vitro [4]): 33 min
CCN/C(=N\S(=O)(=O)c1ccc(O)cc1)N1CC2(C=N1)CCCCC2 [Compound 24] | – | – | melting point: 140 to 142 °C
CCN/C(=N\S(=O)(=O)c1ccc(O)cc1)N1N=CCC1c1ccccc1 (stereo not shown) [Compound 25, N-[Ethylamino-(5-phenyl-4,5-dihydro-pyrazol-1-yl)-methylene]-4-hydroxybenzene-sulfonamide] | – | – | melting point: 158 to 160 °C
CCN/C(=N\S(=O)(=O)c1ccc(O)c(Cl)c1)N1CC(CC)C=N1 (stereo not shown) [Compound 26, 3-Chloro-N-[ethylamino-(4-ethyl-4,5-dihydro-pyrazol-1-yl)-methylene]-4-hydroxy-benzenesulfonamide] | – | 10 nM | –
CCN/C(=N\S(=O)(=O)c1ccc(O)c(Cl)c1)N1CC(C)(C)C=N1 [Compound 27] | 25.1 nM | 15.8 nM | –
CCN/C(=N\S(=O)(=O)c1cccc(N)c1)N1CC(CC)C=N1 (stereo not shown) [Compound 29] | 100 nM | 63.1 nM | –

Structure (SMILES) | Kb (5-HT6 receptor [1]; [7]) | Ki (5-HT6 receptor [2]; [8]) | further results
CCN/C(=N\S(=O)(=O)c1cccc(N)c1)N1CC(C)(C)C=N1 [Compound 30, 3-Amino-N-[(4,4-dimethyl-4,5-dihydro-pyrazol-1-yl)-ethylamino-methylene]-benzenesulfonamide] | 126 nM | 251 nM | –
CCN/C(=N\S(=O)(=O)c1cccc(Cl)c1)N1CC(C)(C)C=N1 [Compound 33 from WO 2008/034863, reference compound] | – | – | 5-HT6 pA2 (5-HT6 receptor [1]; [11]): 7.8; Ki (5-HT6 receptor [2]): 25.1 nM
CCN/C(=N\S(=O)(=O)c1ccc2c(c1)NCC2)N1CC(CC)C=N1 (stereo not shown) [Compound 33, 2,3-Dihydro-1H-indole-6-sulfonic acid ethylamino-(4-ethyl-4,5-dihydro-pyrazol-1-yl)-methyleneamide] | – | 501 nM | –
CCN/C(=N\S(=O)(=O)c1cccc(O)c1)N1CC(C)(C)C=N1 [Compound 36, N-[(4,4-Dimethyl-4,5-dihydro-pyrazol-1-yl)-ethylamino-methylene]-3-hydroxy-benzenesulfonamide] | 31.6 nM | 50.1 nM | –
CCN/C(=N\S(=O)(=O)c1ccc(CO)cc1)N1CC2(C=N1)CCCC2 [Compound 40, N-[(2,3-Diaza-spiro[4.4]non-3-en-2-yl)-ethylamino-methylene]-4-hydroxymethyl-benzenesulfonamide] | – | 631 nM | –
CCN/C(=N\S(=O)(=O)c1ccc(C(N)=O)cc1)N1CC(CC)C=N1 (stereo not shown) [Compound 43, 4-{[Ethylamino-(4-ethyl-4,5-dihydro-pyrazol-1-yl)-methylene]-sulfamoyl}-benzamide] | – | – | melting point: 146 to 149 °C
CCN/C(=N\S(=O)(=O)c1cccc(C(N)=O)c1)N1CC(CC)C=N1 (stereo not shown) [Compound 44, 3-{[Ethylamino-(4-ethyl-4,5-dihydro-pyrazol-1-yl)-methylene]-sulfamoyl}-benzamide] | – | – | melting point: 164 to 168 °C
CCN/C(=N\S(=O)(=O)c1ccc(N)cc1)N1CC2(C=N1)CCNCC2 [Compound 47, 4-Amino-N-[ethylamino-(2,3,8-triaza-spiro[4.5]dec-3-en-2-yl)-methylene]-benzenesulfonamide] | – | – | 5-HT6 pA2 (5-HT6 receptor [1]; [9]): 8.6
CCN/C(=N\S(=O)(=O)c1cccc(Cl)c1)N1CC2(C=N1)CCCC2 [Compound 49 from WO 2008/034863, reference compound] | – | – | 5-HT6 pA2 (5-HT6 receptor [1]; [11]): 8.2; Ki (5-HT6 receptor [2]; [10]): 5.01 nM
CCN/C(=N\S(=O)(=O)c1ccc2[nH]ccc2c1)N1CC2(C=N1)CCNCC2 [Compound 49] | – | – | 5-HT6 pA2 (5-HT6 receptor [1]; [9]): 8.8
CCN/C(=N\S(=O)(=O)c1ccc(O)cc1)N1CC2(C=N1)CCNCC2 [Compound 50] | – | 12.6 nM | –
CCN/C(=N\S(=O)(=O)c1cc(O)cc(Cl)c1)N1CC2(C=N1)CCNCC2 [Compound 52] | – | 7.94 nM | melting point: 112 to 114 °C
CCN/C(=N\S(=O)(=O)c1cc(O)cc(Cl)c1)N1CC(CC)C=N1 (stereo not shown) [Compound 53] | – | 5.01 nM | melting point: 146 to 147 °C
CCN/C(=N\S(=O)(=O)c1cc(O)cc(Cl)c1)N1CC2(C=N1)CCCC2 [Compound 54] | – | – | melting point: 157 to 158 °C
CCN/C(=N\S(=O)(=O)c1cc(O)cc(Cl)c1)N1CC2(C=N1)CCCCC2 [Compound 55] | 0.2 nM | – | –
CCN/C(=N\S(=O)(=O)c1ccc2c(c1)CCN2)N1CC(C)(C)C=N1 [Compound 56] | – | 15.8 nM | –
CCN/C(=N\S(=O)(=O)c1ccc2[nH]ccc2c1)N1CC(C)(C)C=N1 [Compound 57] | 2.51 nM | 7.94 nM | –
CCN/C(=N\S(=O)(=O)c1ccc2c(c1)CCN2)N1CC2(C=N1)CCCCC2 [Compound 59] | – | 7.94 nM | –
CCN/C(=N\S(=O)(=O)c1ccc2[nH]ccc2c1)N1CC2(C=N1)CCCCC2 [Compound 60] | – | 3.16 nM | –
CCN/C(=N\S(=O)(=O)c1ccc(OC)cc1)N1CC(CC)C=N1 (stereo not shown) [Compound 81 from WO 2008/034863, reference compound] | – | – | half-life at 1 μg/ml (in vitro [3]): 68 min; Kb (5-HT6 receptor [1]; antagonism of 10^-8 M α-methylserotonin induced luminescence, comparison table Example 6, read-out: 5-HT6 pA2 (converted)): 100 nM; Ki (5-HT6 receptor [2]; [10]): 63.1 nM; half-life at 1 μg/ml (in vitro [4]): 16 min
CNc1cc(NS(=O)(=O)c2ccc(N)cc2)nc(NC)n1 [Ro 04-6790] | – | – | pharmacokinetics [5]: poor; pKi (5-HT6 receptor [6]): 7.30
CNc1cc(NS(=O)(=O)c2ccc(N)cc2)cc(NC)n1 [Ro 63-0563] | – | – | pharmacokinetics [5]: poor; pKi (5-HT6 receptor [6]): 7.92
